Assay results as given in patent US10233209B2, “Inhibitors of the farnesoid x receptor and uses in medicine” (The United States of America, as represented by the …, priority 2013, dated 2019).

Legend:
SREBP1c-CIDEA pathway = assay: liver mRNA and protein expression (qPCR, western blot); type: in vivo, mouse; conditions: for protein levels of mature nuclear SREBP1 and CIDEA in the liver: HFD 16 weeks
Procedure: (§1) The mucosa of intestine was gently scraped and liver was taken and both were flash frozen in liquid nitrogen and stored at −80° C. until RNA was prepared. RNA was extracted from frozen intestine and liver using TRIzol reagent (Invitrogen, Carlsbad, Calif.). cDNA was synthesized from 1 μg total RNA using Superscript II reverse transcriptase (Invitrogen, Carlsbad, Calif.). qPCR primers were designed with qPrimerDepot. Measured mRNA levels were normalized to those of 18S ribosomal RNA and expressed as fold change relative to those of control group.
(§2) Liver whole-cell or nuclear extracts were prepared. Membranes were incubated with antibodies against FXR (Santa Cruz Biotechnology, Inc., Santa Cruz, Calif.), SREBP1 (BD Biosciences, San Jose, Calif.), and CIDEA (Abcam, Cambridge, Mass.). The signals obtained were normalized to β-ACTIN (Abcam) for whole cell extract and LAMIN A/C (Santa Cruz) for nuclear extracts.

[1] = system: high-fat diet-treated Fxr^fl/fl and Fxr^ΔIE mice; assay: body mass gain of tempol-treated mice on a high-fat diet; type: in vivo, mouse; conditions: high-fat diet 10 weeks
Excerpt: High-fat diet (HFD) (60% kcal consisting of fat) was purchased from Bioserv. […] Fxr^fl/fl and Fxr^ΔIE (Kim et al., J. Lipid Res. 48:2664-2672, 2007) mice were backcrossed with C57BL/6N mice for over 10 generations. For the antibiotic (the combination of bacitracin, neomycin, and streptomycin) study, male C57BL/6N mice from 6 weeks of age were fed a high-fat diet (“HFD) and administered 0.1% (w/v) of each compound (the combination of bacitracin, neomycin, and streptomycin) in the drinking water. […] For TβMCA in vivo, male C57BL/6N mice from 6 weeks of age were fed a HFD and treated with the antibiotics (0.1% of each compound of bacitracin, neomycin, and streptomycin combination) for 3 days. Vehicle (saline), TCA (400 mg/kg body weight, dissolved in saline) or a combination of TCA and TβMCA (400 mg/kg body weight of each compound, dissolved in saline) were orally administered to the mice and followed by a second dose 12 h later. The mice were killed 2 h later for tissue collection. For the Gly-MCA study, Gly-MCA was custom synthesized. […] Cumulative food intake and TEEbal were measured for 1 week in vehicle and Gly-MCA-treated mice from 6 to 7 weeks of HFD. TEEbal was measured as previously described (Ravussin et al., Int. J. Obesity 37:399-403, 2013). […]

HFD-induced NAFLD model = assay: HFD-induced NAFLD model: liver histology, liver weight, triglycerides (tempol, antibiotic); type: in vivo, mouse
Excerpt: High-fat diet (HFD) (60% kcal consisting of fat) was purchased from Bioserv. […] Fxr^fl/fl and Fxr^ΔIE (Kim et al., J. Lipid Res. 48:2664-2672, 2007) mice were backcrossed with C57BL/6N mice for over 10 generations. For the antibiotic (the combination of bacitracin, neomycin, and streptomycin) study, male C57BL/6N mice from 6 weeks of age were fed a high-fat diet (“HFD) and administered 0.1% (w/v) of each compound (the combination of bacitracin, neomycin, and streptomycin) in the drinking water. […] For TβMCA in vivo, male C57BL/6N mice from 6 weeks of age were fed a HFD and treated with the antibiotics (0.1% of each compound of bacitracin, neomycin, and streptomycin combination) for 3 days. Vehicle (saline), TCA (400 mg/kg body weight, dissolved in saline) or a combination of TCA and TβMCA (400 mg/kg body weight of each compound, dissolved in saline) were orally administered to the mice and followed by a second dose 12 h later. The mice were killed 2 h later for tissue collection. For the Gly-MCA study, Gly-MCA was custom synthesized. Bacon-flavored dough pills were produced as described (Walker et al., Toxicol. Appl. Pharmacol. 260:65-69, 2012) for oral administration of Gly-MCA (0.25 mg Gly-MCA/pill, dose of 10 mg/kg). Mice were trained to eat the dough pills prior to the study. For the prevention of obesity, insulin resistance and NAFLD, male wild-type (WT) C57BL/6N mice, 6- to 8-weeks-old, were fed a high-fat diet (Bio-Serv, Frenchtown, N.J.; 60 kcal % fat) from the age of 6 weeks and were orally administered with vehicle (control pills) or Gly-MCA (0.25 mg/pill/day, dose 10 mg/kg). C57BL/6N mice fed a high-fat diet for 12 weeks were administered (0.25 mg Gly-MCA/pill, dose of 5 mg/kg). Leptin-deficient db/db mice, 6- to 8-weeks-old, fed a chow diet, were administered Gly-MCA (0.25 mg/pill/day, 10 mg/kg). Mice were housed individually in their home cages. Cumulative food intake and TEEbal were measured for 1 week in vehicle and Gly-MCA-treated mice from 6 to 7 weeks of HFD. TEEbal was measured as previously described (Ravussin et al., Int. J. Obesity 37:399-403, 2013).
Hematoxylin and eosin (H&E) staining were performed on formalin fixed paraffin embedded sections using a standard protocol. Oil red 0 staining was performed on frozen liver sections using a standard protocol. At least three discontinuous liver sections were evaluated for each mouse.
Hepatic lipids were extracted using a 2:1 chloroform-methanol solution. Liver triglycerides were measured with a triglyceride colorimetric assay kit, according to the manufacturer's recommendation (Bioassay Systems, Hayward, Calif.).

[2] = system: bile salt hydrolase (BSH); assay: fecal bile salt hydrolase activity; type: in vivo, mouse; conditions: tempol vs vehicle
Procedure: Fecal proteins were prepared from feces samples (0.5 g) in pH 7.4 phosphate buffered saline (PBS, 5.0 mL) using sonication. […] Briefly, incubation was carried out in 3 mM sodium acetate buffer, pH 5.2, containing 0.1 mg/ml fecal protein and 50 μM TCDCA-d5 in a final volume of 200 μL. After a 20 min incubation at 37° C., the reaction was stopped by plunging the samples into dry ice. 100 μL of acetonitrile was directly added to the reaction mix. After centrifuging at 14,000×g for 20 min, 5 μL of the supernatant was transferred to an auto sampler vial subjected to analysis by a UPLC system coupled with a XEVO triple quadrupole tandem mass spectrometer (Waters Corp., Milford, Mass.).

primary hepatocytes = assay: ceramide treatment of cultured primary hepatocytes; type: cell-based, mouse
Procedure: Primary hepatocytes from 6-week-old C57BL/6N mice were obtained by collagenase 1 (Invitrogen, Carlsbad, Calif.) perfusion. The cells were purified by 45% Percoll (Sigma, St. Louis, Mo.) density centrifugation and cultured in DMEM (Invitrogen, Carlsbad, Calif.) with 10% fetal bovine serum and 1% Insulin-Transferrin-Selenium-Ethanolamine (ITS-X) (Invitrogen, Carlsbad, Calif.). The viability of hepatocytes was determined using trypan blue dye exclusion, and those with higher than 85% viability were used. The medium was changed to DMEM with 1% fetal bovine serum after culturing for 4 hours. After starvation for 4 hours, the cells were exposed to ceramide. At the prescribed time points, cells were harvested and subjected to qPCR analysis and TG content detection.
as §1, §2

Compound	protein levels of mature nuclear SREBP1 and CIDEA in the liver (SREBP1c-CIDEA pathway; Fxr^ΔIE mice treated with tempol)	inflammation-related genes (Tlr2, Tlr4, Tlr9, Tnfα) mRNA in liver (SREBP1c-CIDEA pathway; HFD 7 weeks)	protein levels of mature nuclear SREBP1 and CIDEA in the liver (SREBP1c-CIDEA pathway; tempol-treated Fxr^fl/fl mice)	weight gain less than that of vehicle treated mice ([1]; Fxr^fl/fl mice)	weight gain vs vehicle ([1]; Fxr^ΔIE mice)	liver weights (HFD-induced NAFLD model; Fxr^fl/fl mice, HFD)	hepatic lipid droplets (liver histology) (HFD-induced NAFLD model; Fxr^fl/fl mice, HFD 14 weeks (antibiotic) and 16 weeks (tempol))	hepatic lipid (liver histology) (HFD-induced NAFLD model; Fxr^ΔIE mice, HFD)	hepatic triglyceride content (hepatic steatosis) (HFD-induced NAFLD model; Fxr^ΔIE mice, HFD)	liver weights (HFD-induced NAFLD model; HFD)	hepatic triglyceride (TG) contents decreased to (HFD-induced NAFLD model; HFD, relative to vehicle) [%]	hepatic lipid droplets (liver histology) (HFD-induced NAFLD model; tempol: HFD 16 weeks, antibiotic: HFD 7 weeks)	bile salt hydrolase (BSH) enzymatic activity in the feces [2]	mRNA of fatty acid synthesis and TG formation genes (Srebp1c, Cidea, Elovl6, Dgat2) (primary hepatocytes; 16 hours, 2, 5, 10 μM ceramide)	mRNA of fatty acid β-oxidation genes (Cpt1, Acox1, Ehhadh, Acaa1a) (primary hepatocytes; 16 hours, 2, 5, 10 μM ceramide)	triglyceride contents in primary hepatocytes (primary hepatocytes; 24 hours, 2, 5, 10 μM ceramide)	protein levels of nuclear SREBP1-N and CIDEA (primary hepatocytes; ceramide 2 μM and 10 μM, 24 hours)
CC1(C)CC(O)CC(C)(C)N1[O] [tempol, 4-hydroxy-2,2,6,6,-tetramethylpiperidine-1-oxyl]	no decrease	comparable	significantly reduced	approximately 65%	insignificant difference in weight gain	significantly reduced	decreased hepatic lipid droplets	no changes in hepatic lipid	did not alleviate hepatic steatosis	decreased	~35	significant reduction in hepatic lipid droplets	significant downregulation				
ceramide														significantly upregulated	not affected	significantly increased triglyceride contents	significantly induced
